Measurements reported in patent US20030073832A1, “Novel aminophenyl ketone derivatives” (priority 2001, published 2003).

How the values were obtained:
IL-1β = experiment: Inhibition of IL-1β secretion from LPS stimulated peripheral blood mononuclear cells; format: cell-based; conditions: PBMC; LPS stimulated human peripheral blood mononuclear cells, 18 hours, ELISA; read-out: The median inhibition concentration (IC50, nM) of IL-1β
Protocol: (§1) To study the effect of compounds of the present invention in vitro the inhibition of the IL-1β and TNF-α secretion was measured using the following procedure:
(§2) Cytokine production was measured in the media from lipopolysaccharide (LPS) stimulated peripheral blood mononuclear cells. The mononuclear cells were isolated from human peripheral blood by Lymphoprep® (Nycomed, Norway) fractionation and suspended in RPMI 1640 (growth medium) with foetal calf serum (FCS, 2%), at a concentration of 5×10^5 cells/ml. The cells were incubated in 24-well tissue culture plates in 1 ml aliquots. Test compounds were dissolved in dimethylsulfoxide (DMSO, 10 mM) and were diluted with the medium. Compounds were added to the cells for 30 minutes, then LPS ([…] final concentration) was added. The plates were incubated for 18 hours, and the concentration of IL-1β and TNF-α in the medium was determined by enzyme-linked immunosorbent assays. The median inhibitory concentrations (IC50) of the compounds were calculated.

TNF-α = experiment: Inhibition of TNF-α secretion from LPS stimulated peripheral blood mononuclear cells; format: cell-based; conditions: PBMC; LPS stimulated human peripheral blood mononuclear cells, 18 hours, ELISA; read-out: The median inhibition concentration (IC50, nM) of TNF-α
Protocol: as §1, §2

PMN-superoxide = experiment: Inhibition of PMN superoxide secretion (ferricytochrome C reduction); format: cell-based; conditions: human PMN granulocytes primed with TNF-α, stimulated with fMLP; read-out: The median inhibition concentration (IC50, nM) of PMN-superoxide
Protocol: The compounds of the present invention also show similar activities in the ability to inhibit PMN (polymorphonuclear) superoxide secretion which is also indicative of potentially useful anti-inflammatory drugs. The compounds were tested using the following procedure:
Human polymorphonuclear (PMN) granulocytes were isolated from human blood by dextran sedimentation, Lymphoprep® fractionation and hypotonic lysis of contaminating erythrocytes.
Superoxide anion generation was measured as the superoxide dismutase inhibitable reduction of ferricytochrome C (Madhu, S.B. et al, Inflammation, 16, 241, (1992)). The cells were suspended in Hanks' balanced salt solution, and incubated for 10 minutes at 37° C. with test compounds. The cells were primed by the addition of TNF-α (3 ng/ml final concentration) for 10 minutes, and then ferricytochrome C, (final concentration 750 μg/ml), bovine serum albumin (BSA, final concentration 1 mg/ml) and formyl-methionyl-leucyl-phenylalanine (fMLP, final concentration 10^−7 M) were added for 3 minutes. The cells were chilled on ice, and were spun down. The optical densities in the cell-free supernatant was measured in a spectrophotometer. The median inhibitory concentration (IC50) of the compounds was calculated.

p38α MAP kinase = target: T1, p38α MAP kinase (Homo sapiens, UniProt Q16539); experiment: p38α MAP kinase assay; format: biochemical; conditions: immunoprecipitated activated FLAG-p38α from COS-1 cells, GST-ATF-2 substrate; read-out: p38 MAP kinase IC50
T1 construct: made in house; host or cells: COS-1 cells (transient co-transfection, anti-FLAG immunoprecipitation)
T1 sequence (Q16539 whole entry): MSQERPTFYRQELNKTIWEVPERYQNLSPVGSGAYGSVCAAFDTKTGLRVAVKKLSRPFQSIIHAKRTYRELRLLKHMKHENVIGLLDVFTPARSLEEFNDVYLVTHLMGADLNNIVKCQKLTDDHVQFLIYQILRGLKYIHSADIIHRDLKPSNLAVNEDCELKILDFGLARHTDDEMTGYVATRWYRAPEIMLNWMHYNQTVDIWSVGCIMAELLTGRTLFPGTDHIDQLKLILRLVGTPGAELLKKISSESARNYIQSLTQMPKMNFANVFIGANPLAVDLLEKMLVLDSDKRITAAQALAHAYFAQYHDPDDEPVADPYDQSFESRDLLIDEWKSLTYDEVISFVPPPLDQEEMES
Protocol: COS-1 cells (derived from African green monkey kidney fibroblast-like cell containing wild-type T antigen under control of the SV40 promotor) were obtained from ATCC (ATCC no. CRL-1650) and grown in growth medium (DMEM without phenolred, 10% FCS, 2 mM L-glutamine, 100U penicillin and 100 μg streptomycin/ml) at 37° C. with 5% CO2. The cells were passaged twice a week by trypsination (0.25% trypsin, 1 mM EDTA in PBS) and were split 1:10. The medium was changed every second or third day. The cell line was regularly tested with the Mycoplasma PCR Primer Set (Stratagene) and found to be free of Mycoplasma. Tissue culture media, FCS, L-glutamine and penicilin and streptomycin are from Bribco BRL, Gaithersburg, Md., USA.
Transient Expression of COS-1 Cells
On day one COS-1 cells were seeded in 143 cm^2 petridish with a density of 2×10^4celler/cm^2 in growth medium. At day 2 the cells were co-transfected with 5 μg (total) of experimental plasmid DNA, expressing the FLAG-p38α and FLAG-MKK6(EE). The plasmids were introduced into the COS-1 cells in serum-free medium using DOTAP™ (Boehringer-Mannheim, Mannheim, Germany). Plasmid DNA was prepared and purified using the QIAGEN EndoToxin-free Maxiprep-500 kit (Hilden, Germany). Briefly, DNA and DOTAP™ were mixed for exactly 15 min. at 37° C. in the CO2 incubator. […]

IC50 (IL-1β) [nM] | IC50 (TNF-α) [nM] | IC50 (PMN-superoxide) [nM] | IC50 (p38α MAP kinase) [nM] | Compound
72 | 17 | 6.3 | 93.3 | Cc1ccccc1Nc1ccc(C(=O)c2sccc2Cl)c(Cl)c1 [Compound 101, 4-(2-tolylamino)-2-chlorophenyl 3-chloro-2-thienyl ketone]
13 | 7.1 | 5 |  | Cc1ccccc1C(=O)c1ccc(Nc2ccccc2N)cc1Cl [Ref. comp., 4-(2-aminophenylamino)-2-chloro-2′-methylbenzophenone, reference compound]
